We go through 40 compounds from patent publication US7851474B2, “Dipiperazinyl ketones and related analogues” (Neurogen Corporation, priority 2005, dated 2010).

The structures appear in SMILES notation.

For the first assay, the target named is T1, chimeric human H3 receptor (Homo sapiens, UniProt Q9Y5N1, E19D).
T1 construct: made in house; host or cells: Sf9 insect cells (baculovirus infection); P2 membrane preparation
T1 sequence (Q9Y5N1 with tags, fused parts or gaps E19D): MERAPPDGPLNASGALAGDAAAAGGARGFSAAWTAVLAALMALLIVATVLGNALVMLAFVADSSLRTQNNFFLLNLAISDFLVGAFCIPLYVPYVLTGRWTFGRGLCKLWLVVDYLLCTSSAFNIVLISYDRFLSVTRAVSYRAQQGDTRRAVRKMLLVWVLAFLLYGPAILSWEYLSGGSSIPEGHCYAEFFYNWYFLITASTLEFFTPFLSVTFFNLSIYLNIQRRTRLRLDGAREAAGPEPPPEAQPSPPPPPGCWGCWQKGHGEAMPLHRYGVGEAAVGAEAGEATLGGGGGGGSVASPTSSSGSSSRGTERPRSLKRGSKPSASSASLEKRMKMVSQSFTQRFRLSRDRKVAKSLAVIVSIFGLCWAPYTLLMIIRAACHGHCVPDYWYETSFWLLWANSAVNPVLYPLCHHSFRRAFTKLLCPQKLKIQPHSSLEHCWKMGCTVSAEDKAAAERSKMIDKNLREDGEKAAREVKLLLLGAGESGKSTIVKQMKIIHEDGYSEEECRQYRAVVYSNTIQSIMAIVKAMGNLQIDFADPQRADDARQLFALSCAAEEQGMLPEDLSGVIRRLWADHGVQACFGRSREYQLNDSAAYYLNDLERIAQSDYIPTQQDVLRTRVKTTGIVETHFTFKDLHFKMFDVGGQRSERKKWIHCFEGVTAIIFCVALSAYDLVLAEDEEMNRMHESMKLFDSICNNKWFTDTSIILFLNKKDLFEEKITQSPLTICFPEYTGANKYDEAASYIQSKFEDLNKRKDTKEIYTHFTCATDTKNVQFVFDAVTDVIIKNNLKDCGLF
In words: Chimeric human H3 receptor GTP binding assay (agonist-stimulated GTP-gamma35S binding, Example 7). The format is biochemical.
Settings: not given
The procedure, abridged:
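Sf9 membranes co-expressing the chimeric receptor and heterotrimeric G-protein subunits, 35 μg protein per tube, in pH 7.4 Tris buffer with 10 μM GDP. Test compounds at 10^−10 to 10^−6 M with 1 μM histamine, 60 min at room temperature. Filter-bound GTP-gamma^35S read by scintillation; IC50 from non-linear regression of dose-response curves.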
`O=C(CN1CCN(c2ccc(C(F)(F)F)cc2)CC1)N1CCN(C2CCCCC2)CC1` [Compound 803, 1-cyclohexyl-4-({4-[4-(trifluoromethyl)phenyl]piperazin-1-yl}acetyl)piperazine]: the Ki (usually a measure of affinity in units of concentration, obtained from inhibition or displacement) is less than 1000 nM.

On to `O=C(CN1CCN(c2cccc(C(F)(F)F)c2)CC1)N1CCN(C2CCCC2)CC1` [Compound 827, 1-cyclopentyl-4-({4-[3-(trifluoromethyl)phenyl]piperazin-1-yl}acetyl)piperazine], for which the inhibition constant Ki is less than 1000 nM.

As for `O=C(CN1CCN(c2ccc(F)c(C(F)(F)F)c2)CC1)N1CCN(C2CCCC2)CC1` [Compound 830, 1-cyclopentyl-4-({4-[4-fluoro-3-(trifluoromethyl)phenyl]piperazin-1-yl}acetyl)piperazine], the Ki is less than 1000 nM.

Turning to `CCN1CCN(C(=O)CN2CCN(c3ccc(C(F)(F)F)cc3)CC2)CC1` [Compound 842, 1-ethyl-4-({4-[4-(trifluoromethyl)phenyl]piperazin-1-yl}acetyl)piperazine], the inhibitory constant (Ki) is less than 1000 nM.

For `CCN1CCN(C(=O)CN2CCN(c3ccc(OC)cc3)CC2)CC1` [Compound 843, 1-ethyl-4-{[4-(4-methoxyphenyl)piperazin-1-yl]acetyl}piperazine], the Ki is less than 1000 nM.

Consider `CC(C)N1CCN(C(=O)CN2CCN(c3ccccc3)CC2)CC1` [Compound 847, 1-isopropyl-4-[(4-phenylpiperazin-1-yl)acetyl]piperazine], for which the inhibition constant (Ki) is less than 1000 nM.

The same assay, now with this note: Table II "Ki", symbol "*": Ki in the assay of Example 7; read-out: Ki.
As for `O=C(CN1CCN(c2ccc(-c3ccncc3)cc2)CC1)N1CCN(C2CCC2)CC1` [Compound 791, 1-cyclobutyl-4-{[4-(4-pyridin-4-ylphenyl)piperazin-1-yl]acetyl}piperazine], the Ki is less than 1000 nM.

Regarding `COc1ccc(F)cc1-c1ccc(N2CCN(CC(=O)N3CCN(C4CCC4)CC3)CC2)cc1` [Compound 792, 1-cyclobutyl-4-{[4-(5′-fluoro-2′-methoxybiphenyl-4-yl)piperazin-1-yl]acetyl}piperazine], the Ki is less than 1000 nM.

Turning to `COc1ccc(C(C)C)cc1-c1ccc(N2CCN(CC(=O)N3CCN(C4CCC4)CC3)CC2)cc1` [Compound 793, 1-cyclobutyl-4-{[4-(5′-isopropyl-2′-methoxybiphenyl-4-yl)piperazin-1-yl]acetyl}piperazine], the Ki is less than 1000 nM.

On to `O=C(CN1CCN(C(=O)C2CCCO2)CC1)N1CCN(C2CCC2)CC1` (stereo not shown) [Compound 801, 1-cyclobutyl-4-{[4-(tetrahydrofuran-2-ylcarbonyl)piperazin-1-yl]acetyl}piperazine], for which the inhibition constant Ki was less than 1000 nM.

As to `O=C(CN1CCN(c2ccc(F)c(C(F)(F)F)c2)CC1)N1CCN(C2CCCCC2)CC1` [Compound 804, 1-cyclohexyl-4-({4-[4-fluoro-3-(trifluoromethyl)phenyl]piperazin-1-yl}acetyl)piperazine], the inhibitory constant (Ki) is less than 1000 nM.

Turning to `O=C(CN1CCN(c2ccccc2)CC1)N1CCN(C2CCCCC2)CC1` [Compound 805, 1-cyclohexyl-4-[(4-phenylpiperazin-1-yl)acetyl]piperazine], the Ki is less than 1000 nM.

Regarding `O=C(CN1CCC(N2CCCC2)CC1)N1CCN(C2CCCCC2)CC1` [Compound 806, 1-cyclohexyl-4-[(4-pyrrolidin-1-ylpiperidin-1-yl)acetyl]piperazine], the Ki is less than 1000 nM.

Take `O=C(CN1CCN(c2ccc(Cl)c(Cl)c2)CC1)N1CCN(C2CCCCC2)CC1` [Compound 815, 1-cyclohexyl-4-{[4-(3,4-dichlorophenyl)piperazin-1-yl]acetyl}piperazine]: the Ki was less than 1000 nM.

With `COc1ccc(N2CCN(CC(=O)N3CCN(C4CCCCC4)CC3)CC2)cc1OC` [Compound 816, 1-cyclohexyl-4-{[4-(3,4-dimethoxyphenyl)piperazin-1-yl]acetyl}piperazine], the Ki is less than 1000 nM.

For the compound `Cc1ccc(N2CCN(CC(=O)N3CCN(C4CCCCC4)CC3)CC2)cc1C` [Compound 817, 1-cyclohexyl-4-{[4-(3,4-dimethylphenyl)piperazin-1-yl]acetyl}piperazine], the Ki was less than 1000 nM.

Consider `O=C(CN1CCN(c2cccc(F)c2)CC1)N1CCN(C2CCCCC2)CC1` [Compound 819, 1-cyclohexyl-4-{[4-(3-fluorophenyl)piperazin-1-yl]acetyl}piperazine], for which the Ki is less than 1000 nM.

As to `COc1cccc(N2CCN(CC(=O)N3CCN(C4CCCCC4)CC3)CC2)c1` [Compound 820, 1-cyclohexyl-4-{[4-(3-methoxyphenyl)piperazin-1-yl]acetyl}piperazine], the Ki was less than 1000 nM.

Take `Cc1cccc(N2CCN(CC(=O)N3CCN(C4CCCCC4)CC3)CC2)c1` [Compound 821, 1-cyclohexyl-4-{[4-(3-methylphenyl)piperazin-1-yl]acetyl}piperazine]: the Ki was less than 1000 nM.

Turning to `O=C(CN1CCN(c2ccc(F)cc2)CC1)N1CCN(C2CCCCC2)CC1` [Compound 822, 1-cyclohexyl-4-{[4-(4-fluorophenyl)piperazin-1-yl]acetyl}piperazine], the Ki is less than 1000 nM.

Regarding `COc1ccc(N2CCN(CC(=O)N3CCN(C4CCCCC4)CC3)CC2)cc1` [Compound 823, 1-cyclohexyl-4-{[4-(4-methoxyphenyl)piperazin-1-yl]acetyl}piperazine], the inhibition constant Ki was less than 1000 nM.

As to `Cc1ccc(N2CCN(CC(=O)N3CCN(C4CCCCC4)CC3)CC2)cc1` [Compound 824, 1-cyclohexyl-4-{[4-(4-methylphenyl)piperazin-1-yl]acetyl}piperazine], the Ki is less than 1000 nM.

In the case of `O=C(CN1CCN(c2ccc([N+](=O)[O-])cc2)CC1)N1CCN(C2CCCCC2)CC1` [Compound 825, 1-cyclohexyl-4-{[4-(4-nitrophenyl)piperazin-1-yl]acetyl}piperazine], the Ki was less than 1000 nM.

Turning to `O=C(CN1CCN(C(=O)C2CCCO2)CC1)N1CCN(C2CCCCC2)CC1` (stereo not shown) [Compound 826, 1-cyclohexyl-4-{[4-(tetrahydrofuran-2-ylcarbonyl)piperazin-1-yl]acetyl}piperazine], the Ki is less than 1000 nM.

Take `CS(=O)(=O)c1ccc(N2CCN(CC(=O)N3CCN(C4CCCC4)CC3)CC2)cc1` [Compound 828, 1-cyclopentyl-4-({4-[4-(methylsulfonyl)phenyl]piperazin-1-yl}acetyl)piperazine]: the Ki is less than 1000 nM.

Take `O=C(CN1CCN(c2ccc(C(F)(F)F)cc2)CC1)N1CCN(C2CCCC2)CC1` [Compound 829, 1-cyclopentyl-4-({4-[4-(trifluoromethyl)phenyl]-1-piperazinyl}acetyl) piperazine]: the Ki is less than 1000 nM.

As for `O=C(CN1CCN(c2cccc(Cl)c2Cl)CC1)N1CCN(C2CCCC2)CC1` [Compound 831, 1-cyclopentyl-4-{[4-(2,3-dichlorophenyl)piperazin-1-yl]acetyl}piperazine], the inhibitory constant (Ki) was less than 1000 nM.

As for `Cc1ccc(N2CCN(CC(=O)N3CCN(C4CCCC4)CC3)CC2)c(C)c1` [Compound 834, 1-cyclopentyl-4-{[4-(2,4-dimethylphenyl)piperazin-1-yl]acetyl}piperazine], the Ki was less than 1000 nM.

With `Cc1cccc(C)c1N1CCN(CC(=O)N2CCN(C3CCCC3)CC2)CC1` [Compound 835, 1-cyclopentyl-4-{[4-(2,6-dimethylphenyl)piperazin-1-yl]acetyl}piperazine], the Ki is less than 1000 nM.

Turning to `COc1ccc(N2CCN(CC(=O)N3CCN(C4CCCC4)CC3)CC2)cc1OC` [Compound 836, 1-cyclopentyl-4-{[4-(3,4-dimethoxyphenyl)piperazin-1-yl]acetyl}piperazine], the Ki is less than 1000 nM.

For `Cc1ccc(N2CCN(CC(=O)N3CCN(C4CCCC4)CC3)CC2)cc1C` [Compound 837, 1-cyclopentyl-4-{[4-(3,4-dimethylphenyl)piperazin-1-yl]acetyl}piperazine], the Ki was less than 1000 nM.

`O=C(CN1CCN(c2cc(Cl)cc(Cl)c2)CC1)N1CCN(C2CCCC2)CC1` [Compound 838, 1-cyclopentyl-4-{[4-(3,5-dichlorophenyl)piperazin-1-yl]acetyl}piperazine]: the Ki was less than 1000 nM.

Take `COc1ccc(N2CCN(CC(=O)N3CCN(C4CCCC4)CC3)CC2)cc1` [Compound 839, 1-cyclopentyl-4-{[4-(4-methoxyphenyl)piperazin-1-yl]acetyl}piperazine]: the inhibitory constant (Ki) was less than 1000 nM.

As for `O=C(CN1CCN(c2ccc([N+](=O)[O-])cc2)CC1)N1CCN(C2CCCC2)CC1` [Compound 840, 1-cyclopentyl-4-{[4-(4-nitrophenyl)piperazin-1-yl]acetyl}piperazine], the Ki is less than 1000 nM.

On to `O=C(CN1CCN(C(=O)C2CCCO2)CC1)N1CCN(C2CCCC2)CC1` (stereo not shown) [Compound 841, 1-cyclopentyl-4-{[4-(tetrahydrofuran-2-ylcarbonyl)piperazin-1-yl]acetyl}piperazine], for which the inhibitory constant (Ki) was less than 1000 nM.

For `CC(C)N1CCN(C(=O)CN2CCN(c3ccc(C(F)(F)F)cc3)CC2)CC1` [Compound 845, 1-isopropyl-4-({4-[4-(trifluoromethyl)phenyl]piperazin-1-yl}acetyl)piperazine], the Ki is less than 1000 nM.

`CC(C)N1CCN(C(=O)CN2CCN(c3ccc(C(F)(F)F)cn3)CC2)CC1` [Compound 846, 1-isopropyl-4-({4-[5-(trifluoromethyl)pyridin-2-yl]piperazin-1-yl}acetyl)piperazine]: the Ki was less than 1000 nM.

Regarding `Cc1ccc(N2CCN(CC(=O)N3CCN(C(C)C)CC3)CC2)cc1` [Compound 850, 1-isopropyl-4-{[4-(4-methylphenyl)piperazin-1-yl]acetyl}piperazine], the Ki is less than 1000 nM.

In the case of `CC(C)N1CCN(C(=O)CN2CCN(c3ccc([N+](=O)[O-])cc3)CC2)CC1` [Compound 851, 1-isopropyl-4-{[4-(4-nitrophenyl)piperazin-1-yl]acetyl}piperazine], the inhibitory constant (Ki) is less than 1000 nM.

As to `CC(C)N1CCN(C(=O)CN2CCN(C(=O)C3CCCO3)CC2)CC1` (stereo not shown) [Compound 852, 1-isopropyl-4-{[4-(tetrahydrofuran-2-ylcarbonyl)piperazin-1-yl]acetyl}piperazine], the inhibition constant (Ki) is less than 1000 nM.
